The numbers were not newly measured in US20220142944A1, “TREATMENT OF SKIN DISORDERS WITH TOPICAL TAPINAROF-EGFR INHIBITOR COMPOSITIONS” (Sol-Gel Technologies Ltd., priority 2019, published 2022), which cites them from elsewhere.

Test in data set [1]: not given
This is another data set of the same source.

Data set [2] deals with atopic dermatitis and plaque psoriasis.
[3] abbreviates: 1% tapinarof arm compared with 0.5% arm or vehicle.

As for `C#Cc1cccc(Nc2ncnc3cc(OCCOC)c(OCCOC)cc23)c1` [erlotinib], the solubility result is recorded as “poorly soluble”.
`CC(C)c1c(O)cc(/C=C/c2ccccc2)cc1O` [tapinarof, 3,5-dihydroxy-4-isopropyl-trans-stilbene]: the “rate of treatment-emergent adverse events” value in data set [1] (93 of 165 with tapinarof, vehicle 34 of 82 [41%]) is 56%. Also, the “intensity of treatment-emergent adverse events” value in data set [1] (in vivo) is listed as “mild to moderate”. For the same molecule, in data set [2] (setting [3]), the efficacy entry is “higher efficacy” and the onset of action result is “quicker onset of action”. Moreover, the “most frequent adverse events” value in data set [2] (topical tapinarof) is “folliculitis and contact dermatitis”.
